Source: PubChem BioAssay AID2060501 (Molecular Pharmacology Branch, DTP, NCI, 2025)
pIC50: −log10 of the molar value.

Test system: 282377-053-R-J1-PDC complex spheroids, viability
Assay: Anticancer human tumor 282377-053-R-J1-PDC patient-derived colon adenocarcinoma cell line growth inhibition [GQUAD]
Settings: for pIC50: curve of first compound; for viability, T/C: stronger effect = lower value
Text: DNA G-quadruplex Stabilizer Agents in Combinations in Complex Spheroids
A high-throughput screen of multi-cell type tumor spheroids was designed to identify active combinations of DNA G-quadruplex stabilizer agents and targeted small molecules. Complex spheroids include a stromal component modeled by human endothelial cells (HUVEC) and fibroblasts modeled by human mesenchymal stem cells (MSCs). The concentration ranges selected for each drug and investigational agent were based upon clinically achievable concentrations if the clinical Cmax of the agent was known.
Compounds. The drugs and investigational agents: pidnarulex (CX-5461; NSC782164), APTO-253 (NSC789042), BRACO-19 (NSC847499), peposertib (NSC802822), ceralasertib (NSC780249), elimusertib (NSC800525), camonsertib (NSC841442), AZD-1390 (NSC803789), olaparib (NSC753686), talazoparib (NSC767125), ART-558 (NSC835418), sotorasib (NSC818433), MRTX-1133 (NSC836407), SN-38 (NSC673596), topotecan (NSC609699), etoposide (NSC141540), doxorubicin (NSC123127), gemcitabine (NSC613327), 5-fluorouracil (NSC19893), paclitaxel (NSC125973), vemurafenib (NSC761431), panobinostat (NSC761190), R-306465 (JNJ-16241199; NSC773264), adavosertib (NSC754352), TP-3654 (NSC805149), carboplatin (NSC241240), KSQ-4279 (NSC840948), and staurosporine (NSC755774) were obtained from the National Cancer Institute (NCI) Developmental Therapeutics Program Chemical Repository (34). The FDA-approved anticancer drug set is available from the NCI Developmental Therapeutics Program. […] The stock solutions were prepared in dimethyl sulfoxide (DMSO, Sigma-Aldrich, St. Louis, MO, cat. D2650) at 800-fold the tested concentration and stored at -70 degrees C prior to their use. All drugs and investigational agents were tested over a range starting from a high concentration at or near the clinical Cmax and decreasing in half-log increments. If the clinical Cmax for an agent had not been determined, the highest concentration tested was 10 microM.
2.3 Cell Culture. All cells were maintained in an incubator at 37 degrees C and 5% CO2 with 95% humidity. The PDC lines were cultured according to standard operating procedures established by the NCI PDMR. All PDCs were thawed and cultured in Matrigel-coated flasks prepared with a working solution of 1X Ham's F-12 nutrient mix, without supplementation (Invitrogen, cat. 11765054), 100 U/mL penicillin-streptomycin (Invitrogen, cat. 15140122), and 2.5% Matrigel (Corning Inc., cat. 354248) for the first three passages. The 857933-349-R-J2-PDC line was cultured in 6C/Colon 1B media, which includes advanced DMEM/F-12 (Thermo Fisher Scientific, cat. 12634028), 10 mM HEPES (Thermo Fisher Scientific, cat. 15630080), 1X GlutaMAX supplement (Thermo Fisher Scientific, cat. 35050061), 0.1 mg/mL primocin (InvivoGen, cat. ant-pm-2), 10% defined fetal bovine serum, heat inactivated (HyClone Laboratories Inc., cat. SH30070.03HI), 50% L-WRN conditioned media (ATCC, cat. CRL-3276), 1.25 mM N-Acetyl-L-cysteine (Sigma-Aldrich, cat. A9165), 10 mM nicotinamide (Sigma-Aldrich, cat. N0636), 1X B-27 supplement (Thermo Fisher Scientific, cat. 17504044), 1X N-2 supplement (Thermo Fisher Scientific, cat. 17502048), 10 microM Y-27632 dihydrochloride (Tocris Bioscience, cat. 1254), and 50 ng/mL human EGF recombinant protein (Thermo Fisher Scientific, cat. PHG0311). The 485176-168-R4-J1-PDC line was cultured in Panc media, which includes all 6C/Colon 1B media components plus 100 ng/mL human FGF-10 (Thermo Fisher Scientific, cat. 100-26), 500 nM SB-431542 (Selleckchem, cat. S1067), and gastrin (Tocris, cat. 3006).
[…]

[1] = second compound 0.0316 µM, first compound 0.0316 µM
[2] = second compound 0.0316 µM, first compound 0.1 µM
[3] = second compound 0.0316 µM, first compound 0.316 µM
[4] = second compound 0.0316 µM, first compound 1 µM
[5] = second compound 0.0316 µM, first compound 3.16 µM
[6] = second compound 0.0316 µM, first compound 10 µM
[7] = second compound 0.1 µM, first compound 0.0316 µM
[8] = second compound 0.1 µM, first compound 0.1 µM
[9] = second compound 0.1 µM, first compound 0.316 µM
[10] = second compound 0.1 µM, first compound 1 µM
[11] = second compound 0.1 µM, first compound 3.16 µM
[12] = second compound 0.1 µM, first compound 10 µM
[13] = second compound 0.316 µM, first compound 0.0316 µM
[14] = second compound 0.316 µM, first compound 0.1 µM
[15] = second compound 0.316 µM, first compound 0.316 µM
[16] = second compound 0.316 µM, first compound 1 µM
[17] = second compound 0.316 µM, first compound 3.16 µM
[18] = second compound 0.316 µM, first compound 10 µM
[19] = second compound 1 µM, first compound 0.0316 µM
[20] = second compound 1 µM, first compound 0.1 µM
[21] = second compound 1 µM, first compound 0.316 µM
[22] = second compound 1 µM, first compound 1 µM
[23] = second compound 1 µM, first compound 3.16 µM
[24] = second compound 1 µM, first compound 10 µM
[25] = second compound 3.16 µM, first compound 0.0316 µM
[26] = second compound 3.16 µM, first compound 0.1 µM
[27] = second compound 3.16 µM, first compound 0.316 µM
[28] = second compound 3.16 µM, first compound 1 µM
[29] = second compound 3.16 µM, first compound 3.16 µM
[30] = second compound 3.16 µM, first compound 10 µM
[31] = second compound 10 µM, first compound 0.0316 µM
[32] = second compound 10 µM, first compound 0.1 µM
[33] = second compound 10 µM, first compound 0.316 µM
[34] = second compound 10 µM, first compound 1 µM
[35] = second compound 10 µM, first compound 3.16 µM
[36] = second compound 10 µM, first compound 10 µM
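Note: spheroids exposed to compounds for 7 days before readout.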
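Throughout, for viability, T/C: percent of vehicle DMSO control viability with 100% = untreated-like growth.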

For CC(C)n1c(=O)n(C)c2cnc3cc(F)c(-c4ccc(OCCCN5CCCCC5)nc4)cc3c21 + CN(C)c1ccc(Nc2c3ccc(NC(=O)CCN4CCCC4)cc3nc3cc(NC(=O)CCN4CCCC4)ccc23)cc1, the pIC50 (second compound 0.0316 µM) was < 5.00, the pIC50 (second compound 0.1 µM) was < 5.00 and the pIC50 (second compound 0.316 µM) was < 5.00. For the same compound, the pIC50 (second compound 1 µM) was < 5.00, the pIC50 (second compound 3.16 µM) was < 5.00 and the pIC50 (second compound 10 µM) was < 5.00. It also gave a viability, T/C [1] of 97.9%, a viability, T/C [2] of 108% and a viability, T/C [3] of 102%. It also gave a viability, T/C [4] of 106%, a viability, T/C [5] of 104% and a viability, T/C [6] of 101%. It also gave a viability, T/C [7] of 92.5%, a viability, T/C [8] of 101% and a viability, T/C [9] of 89.5%. For the same compound, the viability, T/C [10] was 108%, the viability, T/C [11] was 89.4% and the viability, T/C [12] was 90.9%. For the same compound, the viability, T/C [13] was 100%, the viability, T/C [14] was 107% and the viability, T/C [15] was 108%. It also gave a viability, T/C [16] of 103%, a viability, T/C [17] of 88.3% and a viability, T/C [18] of 101%. The viability, T/C [19] was 106%, the viability, T/C [20] was 96.8% and the viability, T/C [21] was 99.7%. For the same compound, the viability, T/C [22] was 94.4%, the viability, T/C [23] was 105% and the viability, T/C [24] was 91%. It also gave a viability, T/C [25] of 113%, a viability, T/C [26] of 108% and a viability, T/C [27] of 102%. The viability, T/C [28] was 114%, the viability, T/C [29] was 110% and the viability, T/C [30] was 108%. The viability, T/C [31] was 106%, the viability, T/C [32] was 102% and the viability, T/C [33] was 110%. It also gave a viability, T/C [34] of 99.7%, a viability, T/C [35] of 97.7% and a viability, T/C [36] of 57.7%.

For CC1COCCN1c1cc(-c2ccnn2C)c2ccnc(-c3ccn[nH]3)c2n1 (centres undefined) + CN(C)c1ccc(Nc2c3ccc(NC(=O)CCN4CCCC4)cc3nc3cc(NC(=O)CCN4CCCC4)ccc23)cc1, the pIC50 (second compound 0.0316 µM) was 6.21, the pIC50 (second compound 0.1 µM) was 6.14 and the pIC50 (second compound 0.316 µM) was 6.32. It also gave a pIC50 (second compound 1 µM) of 6.25, a pIC50 (second compound 3.16 µM) of 5.97 and a pIC50 (second compound 10 µM) of 6.13. It also gave a viability, T/C [1] of 86.5%, a viability, T/C [2] of 88% and a viability, T/C [3] of 61.9%. For the same compound, the viability, T/C [4] was 40.6%, the viability, T/C [5] was 34.6% and the viability, T/C [6] was 26.5%. The viability, T/C [7] was 91%, the viability, T/C [8] was 75.7% and the viability, T/C [9] was 67.1%. For the same compound, the viability, T/C [10] was 41.7%, the viability, T/C [11] was 32.8% and the viability, T/C [12] was 24.8%. The viability, T/C [13] was 82%, the viability, T/C [14] was 65.4% and the viability, T/C [15] was 56.8%. The viability, T/C [16] was 38.3%, the viability, T/C [17] was 38.5% and the viability, T/C [18] was 26.4%. The viability, T/C [19] was 79.1%, the viability, T/C [20] was 101% and the viability, T/C [21] was 67.3%. It also gave a viability, T/C [22] of 36.7%, a viability, T/C [23] of 32.6% and a viability, T/C [24] of 27.8%. It also gave a viability, T/C [25] of 84.5%, a viability, T/C [26] of 74% and a viability, T/C [27] of 67.4%. For the same compound, the viability, T/C [28] was 48.6%, the viability, T/C [29] was 38.6% and the viability, T/C [30] was 26.7%. The viability, T/C [31] was 85.1%, the viability, T/C [32] was 75.4% and the viability, T/C [33] was 64.1%. It also gave a viability, T/C [34] of 42.7%, a viability, T/C [35] of 38.6% and a viability, T/C [36] of 29%.
